# Experimental data published in patent US8236340B2, “Drug formulations for coating medical devices” (REVA Medical, Inc., priority 2003, dated 2012).
# How the values were obtained:
# [1] = Solubility/dispersibility of drug in the three formulation approaches; type: physicochemical; conditions: all three formulation approaches; all components first dissolved in a volatile solvent such as ethanol
# Source text: In all cases the drug was coated onto a balloon from an ethanol solution containing C6-ceramide and the other solvents in each formulation. Once the ethanol evaporated from the surface of the device, the drug was uniformly dispersed over the surface and dissolved within the non-volatile solvent(s). The ethanol was useful in that it decreased the viscosity of the oil/drug mixture thereby promoting uniform coating.
# [2] = Physical stability of drug coated on balloon from dimethylsulfoxide/ethanol solution; type: physicochemical
# Source text: Initially, the deposited lipid form a translucent film, but within an hour or so the deposited material slowly transforms to a white crystallite appearance. The deposition uniformity as measured by microscopy is spotty across the balloon surface. After several days, the white powder continues to transform until it flakes off the balloon and is no longer believed to be in an available state. Decreased availability may be described as the dissolution/deaggregation time of the solid relative to deposition and diffusion within the artery, which prevents it from exerting its effect. Currently, to study the effect of C6-ceramide in animal models, the DMSO/ethanol formulation containing C6-ceramide is coated onto the balloon just prior to insertion into the artery. The role of the solvent is to keep the lipid material in an available film-like state sufficient for it to be rapidly deposited and absorbed quickly in the artery, where it is shown to exert an effect within 15 minutes. However, organic solvents, in which the drug is very soluble, tend to evaporate rapidly and the solvents may also penetrate and affect the balloon performance. Alternative solvents and formulations are needed that permit the drug to remain in a dissolved state yet remain physically stable without changing with time.
# [3] = system: smooth muscle cell (SMC) proliferation; conditions: cited from earlier work
smiles,measurement,setting,value
CCCCCCCCCCCCC/C=C/[C@@H](O)[C@H](CO)NC(=O)CCCCC [C6-ceramide],solubility/dispersibility in formulation approaches,[1],sufficiently soluble and/dispersible
same,physical form of deposited drug over time,[2],physical form of the drug changes with time
same,time to initiate activity,[3]; after application of a single dose from an angioplasty balloon,≤ 15 min
same,SMC proliferation,[3]; in vitro cell culture and in vivo (rabbit carotid model and pig coronary),inhibit SMC proliferation
